Three compounds from patent publication US4529731A, “Thiadiazolediamine derivative with histamine H-2 receptor inhibiting properties” (American Home Products Corporation, priority 1983, dated 1985) can be followed below.

“Also recorded” adds a separate entry of the source.

The subject of data set [1] is spontaneous gastric acid secretion in cannulated rats. Put plainly: inhibiting spontaneous gastric acid secretion in cannulated rats. Type of data set: in vivo, Male albino Sprague Dawley rats. Conditions: for time after which a significant response ceases: cimetidine 80 mg/kg, ranitidine 60 mg/kg. The source says:
Male albino Sprague Dawley rats (200-300 g), purchased from Canadian Breeding Laboratories, were employed. Two gastric cannulas were implanted surgically in each rat as described by L. E. Borella and F. Herr, Gastroenterology, 61, 345 (1971). The rats were used two to three weeks after the operation at a time when their food intake and weight gain were similar to the food intake and weight gain of unoperated litter mates. […] Prior to each experiment, the plugs of the stomach cannulas of each rat were removed and the debris present in the stomach was flushed out with tepid saline passed through the cannulas. Thereafter, the lumen of the stomach was continuously perfused with saline introduced into the stomach through the forestomach cannula at a rate of 0.8-1.2 ml/min. […] On the basis of the hourly acid output, the rats were divided into equal groups so that the average acid output of all groups was similar. Saline (vehicle) or saline suspensions or solutions of the test compounds were administered intragastrically (i.g.) through the forestomach cannula, after having closed the antral cannula. During the one hour absorption period, the stomachs of the rats were not perfused. […] The average post-treatment hourly acid outputs of the test compound groups were compared to that of the saline group and the percent inhibition of acid output was calculated. Multiple statistical comparisons between groups was done using Dunnet's test, C. W. Dunnet, Journal of American Statistical Association, 50, 1096 (1955).

Data set [2] deals with cold-restraint-induced gastric lesions. Put plainly: development of cold-restraint-induced gastric lesions (ulcers). Type of data set: in vivo, male albino rats (Sprague-Dawley). Conditions: p.o.; for ULCER SCORE (MEAN ± S.E.): number of ulcers in glandular stomach. The method, then:
Senay and R. J. Levine, Proc. Soc. Exp. Biol. Med., 124, 1221 (1967).
More explicitly exemplified, the beneficial effects were evaluated as follow: Food was withheld from male albino rats (165-175 g, Sprague-Dawley, Canadian Breeding Laboratories) for 24 hours but water was freely available. The object compound was administered orally in one milliliter of a liquid vehicle to the animals 30 minutes before placing the animals into restrainers. Just prior to being restrained, each animal was given orally 50 mg of sodium taurocholate. The vehicle empoloyed was saline containing polysorbate 80 (oleate ester of sorbitol and its anhydrides copolymerized with ethylene oxide), one drop per five milliliters of saline. The restrainers were made of plexiglass and restricted the movement of the rat to a minimum. The restrainers were placed in a cold environment (4°-5° C.) for three hours. The animals were sacrificed by cervical dislocation, the stomachs removed and the number of ulcers in the glandular portion of the stomach determined.

For a further data set, the system named is histamine H-2 receptors. As to the kind of experiment: inhibition of histamine H-2 receptors (statement in words).
Data set [3] is described as follows: toxicity (statement in words).
The mark [4] stands for this setting: 1 hr after dosing, peroral, object compound 80, cimetidine 80, ranitidine 60 mg/kg.
Where [5] appears, read: 2 hr after dosing, peroral, object compound 80, cimetidine 80, ranitidine 60 mg/kg.
Where [6] appears, read: 3 hr after dosing, peroral, object compound 80, cimetidine 80, ranitidine 60 mg/kg.
The mark [7] stands for this setting: 4 hr after dosing, peroral, object compound 80, cimetidine 80, ranitidine 60 mg/kg, cimetidine value = last statistically significant (*).
Setting [8] is: 5 hr after dosing, peroral, object compound 80, cimetidine 80, ranitidine 60 mg/kg, ranitidine value = last statistically significant (*).
[9] abbreviates: 6 hr after dosing, peroral, object compound 80, ranitidine 60 mg/kg.
Setting [10] is: 7 hr after dosing, peroral, object compound 80, ranitidine 60 mg/kg.

On to `CNC(=C[N+](=O)[O-])NCCSCc1ccc(CN(C)C)o1` [ranitidine, reference compound], for which the “% INHIBITION OF ACID OUTPUT AT VARIOUS TIMES (HR) AFTER DOSING” value in data set [1] (setting [4]) was 69%; in data set [1] (setting [5]), 81%; in data set [1] (setting [6]) it was 65%; in data set [1] (setting [7]), 63%; in data set [1] (setting [8]) it was 44%; in data set [1] (setting [9]), 39%. For the same compound, in data set [1] (setting [10]), the “% INHIBITION OF ACID OUTPUT AT VARIOUS TIMES (HR) AFTER DOSING” value was 6%. Further, the “time after which a significant response ceases” value in data set [1] (peroral) came out at 6 h.
Turning to `CN/C(=N/CCSCc1nc[nH]c1C)NC#N` [cimetidine, reference compound], the “% INHIBITION OF ACID OUTPUT AT VARIOUS TIMES (HR) AFTER DOSING” value was 84% in data set [1] (setting [4]); 84% in data set [1] (setting [5]); 63% in data set [1] (setting [6]); 52% in data set [1] (setting [7]); 3% in data set [1] (setting [8]). Moreover, in data set [1] (peroral), the “time after which a significant response ceases” value was found to be 5 h.
Consider `CN(C)CCNc1n[s+]([O-])nc1NCCCOc1cccc(CN2CCCCC2)c1` (stereo not shown) [Object compound, N-[2-(dimethylamino)ethyl]-N'-[3-[3-[(1-piperidinyl)methyl]phenoxy]propyl]-1,2,5-thiadiazole-3,4-diamine, 1-oxide], for which the “% INHIBITION (ulcer score)” value in data set [2] (1 mg/kg) was determined as 44%; in data set [2] (5 mg/kg, * p < 0.05), 89%; in data set [2] (20 mg/kg, ** p < 0.01), 95%. For the same compound, the “ULCER SCORE (MEAN ± S.E.)” value amounted to 10 ± 9 in data set [2] (1 mg/kg), 2 ± 1 in data set [2] (5 mg/kg) and 0.9 ± 0.5 in data set [2] (20 mg/kg). Besides, in the data set with histamine H-2 receptors, the “inhibition of histamine H-2 receptors” value is “effective inhibitor of histamine H-2 receptors; also recorded: specifically inhibits H-2 histamine receptors”. Besides, in data set [3], the “order of toxicity” value was “relatively low order of toxicity”. The “% INHIBITION OF ACID OUTPUT AT VARIOUS TIMES (HR) AFTER DOSING” value in data set [1] (setting [4]) was determined as 88%; in data set [1] (setting [5]) it was 95%; in data set [1] (setting [6]), 96%; in data set [1] (setting [7]) it was 95%; in data set [1] (setting [8]), 94%; in data set [1] (setting [9]), 85%. Besides, the “% INHIBITION OF ACID OUTPUT AT VARIOUS TIMES (HR) AFTER DOSING” value came to 61% in data set [1] (setting [10]); 52% in data set [1] (8 hr after dosing, peroral, object compound 80 mg/kg); 63% in data set [1] (9 hr after dosing, peroral, object compound 80 mg/kg); 64% in data set [1] (10 hr after dosing, peroral, object compound 80 mg/kg); 32% in data set [1] (18 hr after dosing, peroral, object compound 80 mg/kg); 29% in data set [1] (19 hr after dosing, peroral, object compound 80 mg/kg, last statistically significant value (*)). Further, the “% INHIBITION OF ACID OUTPUT AT VARIOUS TIMES (HR) AFTER DOSING” value in data set [1] (20 hr after dosing, peroral, object compound 80 mg/kg) is recorded as 7%. In addition, the “% INHIBITION OF 3 HOURS GASTRIC ACID OUTPUT” value was found to be 36% in data set [1] (peroral dose 20 mg/kg, rat); 65% in data set [1] (peroral dose 40 mg/kg, rat); 74% in data set [1] (peroral dose 80 mg/kg, rat). Besides, in data set [1] (peroral, object compound 80, cimetidine 80, ranitidine 60 mg/kg), the “duration of effect compared with cimetidine and ranitidine” value is “longer acting effect”. Moreover, in data set [1] (rat, in vivo), the “duration of action” value is given as “long acting properties”.
